Legend:
[1] = system: syngeneic C57BL/6N mice; experiment: Teratoma formation of induced mouse pluripotent stem cells transplanted subcutaneously; format: in vivo; details: cells induced by three genes + MS-275; 2×10^7 cells/mouse subcutaneously; 34 days later; three germ layers observed
Method: From the extracted teratoma, slices were prepared, and differentiation potential into three germ layers was analyzed by immunological and histological staining (HE stain, alcian blue stain). As a result, GFAP-positive cells (the nervous system) and keratin producing cells (skin cells) as the ectodermic system, smooth muscle actin-positive cells (smooth muscle cells), bone tissues and cartilage tissues as the mesodermic system, and intestinal tract tissues (endodermal epithelium positive for MUC-1) as the endodermic system were observed.

[2] = system: cells derived from mouse bone marrow; experiment: Induction of mouse pluripotent stem cells by three gene introduction and MS-275 treatment (colony formation, alkaline phosphatase staining); format: cell-based
Method: Staining for confirming alkaline phosphatase activity which is a characteristic of pluripotent stem cells was conducted in the following manner. After removing the culture medium, a 10% formalin neutral buffer solution was added to wells, and cells were fixed at room temperature for 5 minutes. After washing with a phosphate buffer etc., a chromogenic substrate of alkaline phosphatase, 1 step NBT/BCIP (manufactured by Pierce) was added and reacted at room temperature for 20 to 30 minutes. Cells having alkaline phosphatase activity were all stained blue violet.
The primary culture cells derived from mouse bone marrow containing undifferentiated stem cells that had been stored frozen after preparing in a manner similar to Example 11 were plated at a concentration of 5×10^3 cells/cm^2 on a 24-well plastic plate (manufactured by Becton Dickinson) having the bottom which had been gelatin-coated with a 0.1% gelatin/phosphate buffer, and 2 ml each of the MAPC medium was added.
Eight hours later, the medium was removed, 2 ml each of the three gene (human Oct3/4, Sox2 and Klf4) retrovirus vector solution prepared as in Example 1 were added, and after further adding MS-275, a histone deacetylase inhibitor, at a final concentration of 1 or 0.1 μM, they were cultured at 37° C. for 14 hours. […]

[3] = system: mouse Nanog; experiment: Nanog expression of colonies by quantitative PCR; format: cell-based; details: three genes + MS-275 0.1 or 1.0 μM; compared with alkaline phosphatase-negative colonies; FIG. 3
Method: The expression of target gene of each colony including an alkaline phosphatase-positive colonies was determined using quantitative PCR in the following manner. Colonies developed by the induction of pluripotent stem cells were harvested, and RNA was extracted using the Recoverall total nucleic acid isolation kit for FFPE (manufactured by Ambion). After synthesizing cDNA from the extracted RNA, the target gene was amplified using the Taqman Preamp mastermix (manufactured by Applied Biosystems). As the primers for quantitative PCR, the Taqman gene exprESsion assay (manufactured by Applied Biosystems) was used. […] Human Hprt: Hs99999909_m1, human Nanog: Hs02387400_g1, human Tert: Hs00162669_m1, Mouse Hprt: Mm01545399_m1, mouse Nanog: Ma02019550_s1. Then, the amount expressed of the Nanog gene was confirmed by quantitative PCR, and the expression of mouse Nanog of colonies of pluripotent stem cells having alkaline phosphatase activity was confirmed (FIG. 3).

SMILES: Nc1ccccc1NC(=O)c1ccc(CNC(=O)OCc2cccnc2)cc1 [MS-275, N-(2-aminophenyl)-4-[N-(pyridine-3-yl-methoxycarbonyl)aminomethyl]benzamide]
- teratoma formation [1]: teratoma that formed was extracted
- formation of pluripotent stem cell colonies ([2]; three genes (human Oct3/4, Sox2, Klf4) retrovirus + MS-275 1 or 0.1 μM, fifteen days after): formed colonies composed of mouse ES cell-like small cells
- alkaline phosphatase activity staining of colonies ([2]; three genes + MS-275 1 or 0.1 μM): stained blue violet by alkaline phosphatase activity
- expression of Nanog in alkaline phosphatase-positive colonies [3]: significantly higher than the alkaline phosphatase-negative colonies
